How the values were obtained:
[1] = Global brain levels of endocannabinoids in the rat after 4-aminophenol; type: in vivo; conditions: 4-aminophenol 100 mg/kg i.p.; 15, 30, 45 and 60 min
Protocol: (§1) The whole brain was homogenized in ice-cold 10 mM Tris buffer (ml/g tissue) at pH 7.6. The buffer solution contained 1 mM EDTA, 0.3 mM ascorbic acid and 10 µM methylarachidonylfluorophosphonate (MAFP) to prevent degradation of AM404, arvanil, olvanil, anandamide and 2-arachidonoylglycerol. Aliquots (200 µl) of blood and homogenates were precipitated with 1 ml ice-cold acetone, containing AM404-D4 (5 nM) or anandamide-D8 (100 nM) as internal standard. After centrifugation at 25,200 g for 30 min at 4°C, the supernatants were collected in polypropylene tubes and vacuum evaporated. The protein content of the pellet was determined with Coomassie protein assay (Pierce; Illinois, USA), using bovine serum albumin as standard. […] Samples were analyzed on a Waters Aquity UPLC system coupled to a Sciex 5500 tandem mass spectrometer (LC-MS/MS; AB Sciex; Massachusetts, USA) or a Perkin Elmer 200 HPLC system coupled to an API 3000 tandem mass spectrometer (LC-MS-MS; Applied Biosystems/MDS-SCIEX).
Quantification of anandamide and 2-arachidonoylglycerol. Anandamide (m/z 348.2/62.0), anandamide-D8 (m/z 356.4/63.0) and 2-arachidonoylglycerol (m/z 379.2/287.0) were determined as previously described. Since 2-arachidonoylglycerol is non-enzymatically converted to 1-arachidonoylglycerol, the content of 2-arachidonoylglycerol was estimated as the sum of these lipids. […]

rats [2] = experiment: Paw pressure test, rat
Protocol: The behavioural tests were performed in a quiet room and evaluated by a single investigator in a blinded manner. Treatments and/or genotypes were randomized in blocks and the number of animals in each block corresponded to the number of treatments and/or genotypes compared. […] Each animal was exposed to only one treatment.
The rats were submitted to the paw pressure test, using an Ugo Basile analgesy meter with a probe tip diameter of 1 mm (Bioseb, France). Nociceptive thresholds, expressed in grams (g), were measured by applying an increasing pressure to the right hind paw until a squeak (vocalization thresholds) was obtained (cut-off 750 g). Two consecutive stable vocalisation threshold values were first obtained (baseline).
Intrathecal injections were performed on anaesthetised rats held in one hand by the pelvic girdle. A 25 gauge 1 inch needle connected to a 25 µl Hamilton syringe was then inserted into the subarachnoidal space between lumbar vertebrae L5 and L6 until a tail flick was elicited. The syringe was held in position for few seconds after the injection of a volume of 10 µl [49]. All injections were performed under isoflurane anaesthesia (4% induction, 2% maintenance).

[3] = Contents of amines and lipid metabolites in blood and brain after i.p. injection in mice (LC-MS/MS); type: in vivo, mouse; conditions: mouse
Protocol: Twenty min after drug administration, the animals were anesthetized by CO2 (rats) or isoflurane (mice) inhalation and decapitated. The brain was removed from the skull and blood was collected in test tubes, containing 60 µl buffered citrate, and the tissues snap frozen in liquid nitrogen before storage at −70°C.
as §1
(§2) Quantification of AM404, HPODA, arvanil and olvanil. Samples were analyzed on a Waters Aquity UPLC system coupled to a Sciex 5500 tandem mass spectrometer. Sample aliquots of 5 µl were injected into an Acquity UPLC BEH C18 column (100 × 2 mm, 1.7 µm; Waters) held at 50°C. All mobile phases were water-acetonitrile gradients, containing 0.1% formic acid and using a flow rate of 400 µl/min. The acetonitrile content was initially 30%, then increased linearly to 100% over 7 min and kept at this level for 4 min, followed by an equilibration period at 30% for 2 min. The electrospray interface was operating in the positive ion mode at 550°C and the ion spray voltage was set to 5000 volts. The mass transitions (m/z) used were the following: 396.2/110.1 for AM404, 374.2/110.0 for HPODA, 400.2/114.0 for AM404-D4, 440.3/137.1 for arvanil and 418.3/137.1 for olvanil. The declustering potentials were between 96 and 130 volts and the collision energies between 25 and 41 volts.
Quantification of 4-aminophenol and HMBA. Sample aliquots of 5 µl were injected into a Hypercarb column (50 × 2.1 mm; Thermo). All mobile phases were water-acetonitrile gradients, containing 0.1% formic acid. The acetonitrile content was initially 2%, then increased linearly to […] over 5 min and then kept at 100% for 1 min, followed by an equilibration period at 2% for 1.5 min. The electrospray ion source was set at 550°C and used in the positive ion mode with an ion spray voltage of 5000. […] HMBA loses the amino group already in the source of the MS and therefore the mass transition used was 137.0/94.0. The declustering potentials were 100 and 90 volts and the collision energies 21 and 29 volts. No internal standard was used for these analyses.
The contents of the compounds were expressed either in moles or as normalized peak areas (nPA) and related to the protein content in the samples. The nPA was obtained by dividing the peak area of the analyte with the peak area for the internal standard in the same sample. The detection limits were calculated as the concentrations corresponding to three times the standard deviation of the blanks. When levels were below detection limit, numerical values of half the detection limit were used in the calculations.

mice [4] = experiment: von Frey filament test, mouse; type: in vivo; conditions: 30 mg/kg i.p.
Excerpt: Calibrated von Frey filaments (0.0045–5.4950 g) were used to induce light noxious mechanical stimulation in mice. Tests were commenced after one hour of habituation. Filaments of increasing stiffness were applied five times perpendicular to the plantar surface of the hindpaw and pressed until bending. The first filament that evoked at least three consecutive responses was assigned as the threshold (cut-off 2 g).

mice [5] = experiment: Formalin test, mouse; type: in vivo; conditions: for formalin test phases: HMBA 100 mg/kg
Protocol: (§3) The animals received an intraplantar injection of a 2.5% formalin solution (50 µl rat, 25 µl mouse) into a hind paw. The time spent biting and licking of the injected paw was monitored during the two typical phases of the nociceptive response (phase I: 0–5 min; phase II: 20–40 min in rats or 15–40 min in mice).

rodents = conditions: doses not far from those eliciting antinociception in rodents; cited from earlier work
mice [6] = experiment: Tail immersion test, mouse; type: in vivo; conditions: 30 mg/kg i.p.
Protocol: Tails of mice were submerged in a hot water bath (46°C) and the withdrawal latency recorded (cut-off 15 s). The mean of four baseline values were determined before drug administration.

rats [7] = conditions: 4-aminophenol three doses, data not shown
rats [8] = experiment: Formalin test, rat; type: in vivo; conditions: 4-aminophenol 10, 30 and 100 mg/kg i.p.
Protocol: as §3

mice [9] = experiment: Spontaneous locomotor activity in actimetry boxes; type: in vivo, mouse; conditions: 10 min before test
Protocol: Mice were placed in actimetry boxes (Actisystem; Apelex, France) and spontaneous motor activity was assessed by determining the number of crossings of light beams during 15 min.

[10] = Formation of arvanil and olvanil in brain homogenates incubated with HMBA; type: in vitro ADME, rat; conditions: HMBA 100 µM, 60 min
Protocol: Rat brain homogenate were prepared, as previously described. Brains were homogenized in Tris buffer (10 mM, pH 7.6), containing ethylenediaminetetraacetic acid (EDTA; 1 mM), at volumes of 5–10 ml/g tissue. Experiments were carried out on aliquots of 200 µl homogenate at 37°C as further explained in the text. The reactions were stopped by adding 1 ml ice-cold acetone, containing 1 µM [^2H8]-anandamide. The samples were kept on ice until the acetone phase was vacuum evaporated.
as §2, with “The declustering potentials were between 96 and 130 volts and the collision energies between 25 and 41 volts.” left out

[11] = 20 min after 4-AP 30 mg/kg i.p.
[12] = 20 min after 4-AP 100 mg/kg i.p.

Nc1ccc(O)cc1 [4-aminophenol]
global levels of the endocannabinoids anandamide and 2-arachidonoylglycerol in the rat brain [1]: did not affect the global levels | withdrawal threshold in rat paw pressure test (rats [2]; 100 mg/kg i.p., 15 and 30 min after administration): increased the withdrawal threshold | withdrawal threshold in rat paw pressure test (rats [2]; intermediate dose 30 mg/kg i.p.): effective only at 15 min | withdrawal threshold in rat paw pressure test (rats [2]; low dose 10 mg/kg i.p.): inactive | quotient between brain levels of 4-aminophenol and AM404 ([3]; 4-aminophenol 30 mg/kg i.p.): 223 | quotient between brain levels of 4-aminophenol and HPODA ([3]; 4-aminophenol 30 mg/kg i.p.): 951 | quotient between brain levels of 4-aminophenol and AM404 ([3]; 4-aminophenol 100 mg/kg i.p.): 1,547 | quotient between brain levels of 4-aminophenol and HPODA ([3]; 4-aminophenol 100 mg/kg i.p.): 9,376 | Blood 4-AP [3, 11]: 283 ± 15 nmol/g | Brain 4-AP [3, 11]: 91 nmol/g | Brain 4-AP ([3]; 20 min after 4-AP 30 mg/kg i.p., listed as 4-AP): 91 ± 12 nmol/g | Blood 4-AP [3, 12]: 878 ± 157 nmol/g | Brain 4-AP [3, 12]: 7470 ± 1720 nmol/g | withdrawal threshold in von Frey test (mice [4]; FAAH+/+ mice): increased the withdrawal threshold | antinociception in von Frey test (mice [4]; FAAH−/− mice): failed to produce antinociception | antinociceptive activity in von Frey test (mice [4]; TRPV1−/− mice): lost | licking time in formalin test (mice [5]; 30 mg/kg i.p., FAAH+/+ mice): reduced the licking time during the first and second phases | antinociception in formalin test (mice [5]; 30 mg/kg i.p., FAAH−/− mice): failed to produce antinociception | antinociceptive activity in formalin test (mice [5]; 30 mg/kg i.p., TRPV1−/− mice): lost | nephrotoxic effect after a single exposure (rodents): renal tubular necrosis | latency time in tail immersion test (mice [6]; FAAH+/+ mice): increased | antinociception in tail immersion test (mice [6]; FAAH−/− mice): failed to produce antinociception | antinociceptive activity in tail immersion test (mice [6]; TRPV1−/− mice): lost | locomotor activity (rats [7]): tolerated all three doses | licking time in rat formalin test (rats [8]): Only the highest dose reduced both phases | locomotor activity (mice [9]; 4-aminophenol 10, 30 and 100 mg/kg i.p.): reduced locomotor activity after the highest dose

COc1cc(CN)ccc1O [HMBA, 4-hydroxy-3-methoxybenzylamine]
formation of N-acylamines in brain homogenates [10]: leads to the formation of arvanil and olvanil | formalin test phases (mice [5]; FAAH−/− mice): affected none of these phases | formalin test phases (mice [5]; wild-type mice): inhibited both the first and second phases | locomotor activity (mice [9]; HMBA 100, 200 and 300 mg/kg i.p.): only the dose of 100 mg/kg failed to affect locomotion

— PMC3734263, “Fatty Acid Amide Hydrolase-Dependent Generation of Antinociceptive Drug Metabolites Acting on TRPV1 in the Brain” (PLoS ONE, 2013)
